The experiment relates to Murine neutrophils. Nature of the experiment: NET induction in response to nigericin in murine neutrophils. It counts as cell-based, mouse. Also on record: dose or concentration left out as unconfirmed. To be noted: nigericin for 3 hours; FIG. 5E. As to the method:
FIGS. 5A-J. Class I/II HDACs drive NET formation. • A) Quantification of extracellular DNA released by neutrophils treated, or not, with 1 μM GSK484 for 1 h and then stimulated with 1 μM PMA for 4 hours. Unstimulated, neutrophils not treated with drugs were used as a control. • B) Freshly purified human neutrophils were treated with the indicated HDAC inhibitors at different doses (0.08, 0.4, 2 and 10 μM) for 1 hour. Extracellular DNA release was assessed in the supernatant 3 hours after PMA stimulation. The dotted line represents the amount of DNA released from neutrophils treated with PMA alone. […] NETosis induction was measured as level of anti-CitH3 fluorescent signal. […] NET induction was measured as in (C). […] NETosis induction was measured as level of anti-CitH3 fluorescent signal. […] NET induction was measured as in (F). • H, I) Freshly isolated neutrophils from two different donors were treated with different doses of ricolinostat, citarinostat (10, 2, 0.4, 0.08 μM) or GSK484 (10, 5, 2 μM) for 1 h and then stimulated with 1 μM PMA. NET induction was measured as level of anti-CitH3 fluorescent signal (H) and by microscopy as number of cells positive for CitH3 signal per field of view (FOV) (I). […] NET induction was measured as level of anti-CitH3 fluorescent signal. […] Statistics were calculated using One-way ANOVA (A, E, I) and Two-way ANOVA (B, F, G, H, L). […]

Turning to `O=C(CCCCCCNC(=O)c1cnc(N(c2ccccc2)c2ccccc2)nc1)NO` [ricolinostat], the “NET induction in response to nigericin (anti-CitH3 signal)” value is reported as “inhibited NET induction”.

The record behind these values is patent publication US20240366594A1, “Small Molecule Inhibitors of Formation of Neutrophil-Derived Extracellular Traps (NETosis) and Uses Thereof” (The Brigham and Women's Hospital, Inc., priority 2021, published 2024).
